# Results: patent US11478533B2, “Semaglutide for use in medicine” (Novo Nordisk A/S, priority 2020, dated 2022)
# Tested on: subjects with NASH
# Test: Clinical Trial A: liver biopsy histology (NASH-CRN, Kleiner fibrosis classification) at trial week 72
# Type: in vivo, human
# Details: for Worsening of liver fibrosis stage determined via liver biopsy at end of trial compared to baseline, Proportion of subjects: all randomised subjects
# Excerpt: NASH diagnosis may further include histological evidence of NASH with an NAFLD activity score (NAS) of more than 4. In some embodiments the term “NAFLD activity score” as used herein refers to the unweighted sum of the individual scores of steatosis (score 0-3), lobular inflammation (score 0-3), and hepatocyte ballooning (score 0-2) determined by liver biopsy histology according to NASH-CRN; thus, NAS is in the range of 0 to 8. In some embodiments NASH-CRN is as published in Kleiner et al. Hepatology. 2005; 41(6):1313-21 (e.g. Table 1) and Brunt et al. World J Gastroenterol. 2010; 16(42):5286-96. In some embodiments the term “steatosis” as used herein refers to liver biopsy histology showing low- to medium-power evaluation of parenchymal involvement by steatosis and is one of the stages with a score selected from the group consisting of “0” (<5%), “1” (5%-33%), “2” (>33%-66%), and “3” (>66%) according to NASH-CRN. In some embodiments the term “lobular inflammation” as used herein refers to the overall assessment of all inflammatory foci in liver biopsy histology and is one of the stages with a score selected from the group consisting of “0” (no foci), “1” (<2 foci per 200 times magnification field), “2” (2-4 foci per 200 times magnification field) and “3” (>4 foci per 200 times magnification field) according to NASH-CRN. In some embodiments the term “hepatocyte ballooning” as used herein refers to liver biopsy histology showing one of the stages with a score selected from the group consisting of “0” (none), “1” (few balloon cells) and “2” (many cells/prominent ballooning) according to NASH-CRN.
# In some embodiments the method of the invention provides resolution of NASH. In some embodiments the term “resolution of NASH” as used herein refers to the subject no longer fulfilling the criteria for a NASH diagnosis. In some embodiments the term “resolution of NASH” refers to a liver biopsy histology showing (i) no more than mild residual inflammatory cells (i.e. inflammation score 0 or 1 according to NASH-CRN), (ii) no hepatocyte ballooning (i.e. hepatocyte ballooning score of 0 according to NASH-CRN), and (iii) any value for steatosis (i.e. steatosis score of 0-3 according to NASH-CRN). In some embodiments the method of the invention provides an improvement of lobular inflammation and/or hepatocyte ballooning. In some embodiments the term “improvement of lobular inflammation” as used herein refers to reduction by at least one stage of lobular inflammation (score 0-3) as defined herein; for example, reduction from a score 3 to a score 1. In some embodiments the term “improvement of hepatocyte ballooning” as used herein refers to reduction by at least one stage of hepatocyte ballooning (score 0-2) as defined herein; for example, reduction from a score 2 to a score 0.
# In some embodiments the term “fibrosis” as used herein refers to the fibrosis stage in NASH described by the Kleiner fibrosis classification. In some embodiments the terms “Kleiner fibrosis classification” or “fibrosis stage” are used interchangeably herein and refer to the classification as defined in Kleiner et al. Hepatology, 2005; 41(6):1313-21 which consists of the stages selected from the group consisting of “0” (absence of fibrosis), “1” (portal/perisinusoidal fibrosis), “2” (perisinusoidal and portal/periportal fibrosis), “3” (septal or bridging fibrosis), and “4” (cirrhosis). In some embodiments the method of the invention provides no worsening of liver fibrosis. In some embodiments the terms “no worsening of liver fibrosis” or “no worsening of liver fibrosis stage” as used interchangeably herein refers to no increase of at least one stage of the Kleiner fibrosis classification.
# A 72-week, randomised, double-blind, placebo-controlled, six-armed, parallel group, multicentre, multi-national phase 2 trial comparing once daily (OD) administration of semaglutide in three different doses (0.1 mg, 0.2 mg and 0.4 mg) with placebo in subjects with NASH was carried out. […]
# [1] = 0.1 mg OD s.c., week 72, Fibrosis stage 1-3 at baseline (all randomised subjects)
# [2] = 0.1 mg OD s.c., week 72, Fibrosis stage 1 at baseline
# [3] = 0.1 mg OD s.c., week 72, Fibrosis stage 2 at baseline
# [4] = 0.1 mg OD s.c., week 72, Fibrosis stage 2 or 3 at baseline
# [5] = 0.1 mg OD s.c., week 72, Fibrosis stage 3 at baseline
# [6] = 0.2 mg OD s.c., week 72, Fibrosis stage 1-3 at baseline (all randomised subjects)
# [7] = 0.2 mg OD s.c., week 72, Fibrosis stage 1 at baseline
# [8] = 0.2 mg OD s.c., week 72, Fibrosis stage 2 at baseline
# [9] = 0.2 mg OD s.c., week 72, Fibrosis stage 2 or 3 at baseline
# [10] = 0.2 mg OD s.c., week 72, Fibrosis stage 3 at baseline
# [11] = 0.4 mg OD s.c., week 72, Fibrosis stage 1-3 at baseline (all randomised subjects)
# [12] = 0.4 mg OD s.c., week 72, Fibrosis stage 1 at baseline
# [13] = 0.4 mg OD s.c., week 72, Fibrosis stage 2 at baseline
# [14] = 0.4 mg OD s.c., week 72, Fibrosis stage 2 or 3 at baseline
# [15] = 0.4 mg OD s.c., week 72, Fibrosis stage 3 at baseline
# [16] = all tested semaglutide dosages, liver fibrosis stage 1-3 at baseline
substance,measurement,setting,value
"N-epsilon26-[2-(2-{2-[2-(2-{2-[(S)-4-Carboxy-4-(17-carboxyheptadecanoyl-amino)butyrylamino]ethoxy}ethoxy)acetylamino]ethoxy}ethoxy)acetyl] [Aib8, Arg34]GLP-1-(7-37) [Semaglutide]","Improvement of hepatocyte ballooning at end of trial compared to baseline, proportion of subjects",[1],61.3%
same,"Improvement of lobular inflammation at end of trial compared to baseline, proportion of subjects",[1],41.3%
same,"Improvement of steatosis at end of trial compared to baseline, proportion of subjects",[1],52.5%
same,"Resolution of NASH and no worsening in liver fibrosis at end of trial, proportion of subjects",[1],43.8 (0.0023) %
same,"Resolution of NASH at end of trial, proportion of subjects",[1],47.5%
same,"Improvement of hepatocyte ballooning at end of trial compared to baseline, proportion of subjects",[2],60.9%
same,"Improvement of lobular inflammation at end of trial compared to baseline, proportion of subjects",[2],34.8%
same,"Improvement of steatosis at end of trial compared to baseline, proportion of subjects",[2],56.5%
same,"Resolution of NASH and no worsening in liver fibrosis at end of trial, proportion of subjects",[2],52.2%
same,"Resolution of NASH at end of trial, proportion of subjects",[2],60.9%
same,"Improvement of hepatocyte ballooning at end of trial compared to baseline, proportion of subjects",[3],66.7%
same,"Improvement of lobular inflammation at end of trial compared to baseline, proportion of subjects",[3],33.3%
same,"Improvement of steatosis at end of trial compared to baseline, proportion of subjects",[3],61.1%
same,"Resolution of NASH and no worsening in liver fibrosis at end of trial, proportion of subjects",[3],55.6%
same,"Resolution of NASH at end of trial, proportion of subjects",[3],55.6%
same,"Improvement of hepatocyte ballooning at end of trial compared to baseline, proportion of subjects",[4],61.4%
same,"Improvement of lobular inflammation at end of trial compared to baseline, proportion of subjects",[4],43.9%
same,"Improvement of steatosis at end of trial compared to baseline, proportion of subjects",[4],50.9%
same,"Resolution of NASH and no worsening in liver fibrosis at end of trial, proportion of subjects",[4],40.4 (0.0100) %
same,"Resolution of NASH at end of trial, proportion of subjects",[4],42.1%
same,"Improvement of hepatocyte ballooning at end of trial compared to baseline, proportion of subjects",[5],59.0%
same,"Improvement of lobular inflammation at end of trial compared to baseline, proportion of subjects",[5],48.7%
same,"Improvement of steatosis at end of trial compared to baseline, proportion of subjects",[5],46.2%
same,"Resolution of NASH and no worsening in liver fibrosis at end of trial, proportion of subjects",[5],33.3%
same,"Resolution of NASH at end of trial, proportion of subjects",[5],35.9%
same,"Worsening of liver fibrosis stage determined via liver biopsy at end of trial compared to baseline, Proportion of subjects","0.1 mg OD s.c., week 72",10.0%
same,"Improvement of hepatocyte ballooning at end of trial compared to baseline, proportion of subjects",[6],70.5%
same,"Improvement of lobular inflammation at end of trial compared to baseline, proportion of subjects",[6],47.4%
same,"Improvement of steatosis at end of trial compared to baseline, proportion of subjects",[6],60.3%
same,"Resolution of NASH and no worsening in liver fibrosis at end of trial, proportion of subjects",[6],38.5 (0.0138) %
same,"Resolution of NASH at end of trial, proportion of subjects",[6],46.2%
same,"Improvement of hepatocyte ballooning at end of trial compared to baseline, proportion of subjects",[7],84.2%
same,"Improvement of lobular inflammation at end of trial compared to baseline, proportion of subjects",[7],42.1%
same,"Improvement of steatosis at end of trial compared to baseline, proportion of subjects",[7],63.2%
same,"Resolution of NASH and no worsening in liver fibrosis at end of trial, proportion of subjects",[7],47.4%
same,"Resolution of NASH at end of trial, proportion of subjects",[7],68.4%
same,"Improvement of hepatocyte ballooning at end of trial compared to baseline, proportion of subjects",[8],72.2%
same,"Improvement of lobular inflammation at end of trial compared to baseline, proportion of subjects",[8],38.9%
same,"Improvement of steatosis at end of trial compared to baseline, proportion of subjects",[8],66.7%
same,"Resolution of NASH and no worsening in liver fibrosis at end of trial, proportion of subjects",[8],55.6%
same,"Resolution of NASH at end of trial, proportion of subjects",[8],61.1%
same,"Improvement of hepatocyte ballooning at end of trial compared to baseline, proportion of subjects",[9],66.1%
same,"Improvement of lobular inflammation at end of trial compared to baseline, proportion of subjects",[9],49.2%
same,"Improvement of steatosis at end of trial compared to baseline, proportion of subjects",[9],59.3%
same,"Resolution of NASH and no worsening in liver fibrosis at end of trial, proportion of subjects",[9],35.6 (0.0359) %
same,"Resolution of NASH at end of trial, proportion of subjects",[9],39.0%
same,"Improvement of hepatocyte ballooning at end of trial compared to baseline, proportion of subjects",[10],63.4%
same,"Improvement of lobular inflammation at end of trial compared to baseline, proportion of subjects",[10],53.7%
same,"Improvement of steatosis at end of trial compared to baseline, proportion of subjects",[10],56.1%
same,"Resolution of NASH and no worsening in liver fibrosis at end of trial, proportion of subjects",[10],26.8%
same,"Resolution of NASH at end of trial, proportion of subjects",[10],29.3%
same,"Worsening of liver fibrosis stage determined via liver biopsy at end of trial compared to baseline, Proportion of subjects","0.2 mg OD s.c., week 72",7.7%
same,"Improvement of hepatocyte ballooning at end of trial compared to baseline, proportion of subjects",[11],74.4%
same,"Improvement of lobular inflammation at end of trial compared to baseline, proportion of subjects",[11],37.8%
same,"Improvement of steatosis at end of trial compared to baseline, proportion of subjects",[11],63.4%
same,"Resolution of NASH and no worsening in liver fibrosis at end of trial, proportion of subjects",[11],56.1 (<0.0001) %
same,"Resolution of NASH at end of trial, proportion of subjects",[11],61.0%
same,"Improvement of hepatocyte ballooning at end of trial compared to baseline, proportion of subjects",[12],57.7%
same,"Improvement of lobular inflammation at end of trial compared to baseline, proportion of subjects",[12],15.4%
same,"Improvement of steatosis at end of trial compared to baseline, proportion of subjects",[12],53.8%
same,"Resolution of NASH and no worsening in liver fibrosis at end of trial, proportion of subjects",[12],50.0%
same,"Resolution of NASH at end of trial, proportion of subjects",[12],53.8%
same,"Improvement of hepatocyte ballooning at end of trial compared to baseline, proportion of subjects",[13],78.6%
same,"Improvement of lobular inflammation at end of trial compared to baseline, proportion of subjects",[13],50.0%
same,"Improvement of steatosis at end of trial compared to baseline, proportion of subjects",[13],71.4%
same,"Resolution of NASH and no worsening in liver fibrosis at end of trial, proportion of subjects",[13],64.3%
same,"Resolution of NASH at end of trial, proportion of subjects",[13],78.6%
same,"Improvement of hepatocyte ballooning at end of trial compared to baseline, proportion of subjects",[14],82.1%
same,"Improvement of lobular inflammation at end of trial compared to baseline, proportion of subjects",[14],48.2%
same,"Improvement of steatosis at end of trial compared to baseline, proportion of subjects",[14],67.9%
same,"Resolution of NASH and no worsening in liver fibrosis at end of trial, proportion of subjects",[14],58.9 (<0.0001) %
same,"Resolution of NASH at end of trial, proportion of subjects",[14],64.3%
same,"Improvement of hepatocyte ballooning at end of trial compared to baseline, proportion of subjects",[15],83.3%
same,"Improvement of lobular inflammation at end of trial compared to baseline, proportion of subjects",[15],47.6%
same,"Improvement of steatosis at end of trial compared to baseline, proportion of subjects",[15],66.7%
same,"Resolution of NASH and no worsening in liver fibrosis at end of trial, proportion of subjects",[15],75.1%
same,"Resolution of NASH at end of trial, proportion of subjects",[15],59.5%
same,"Worsening of liver fibrosis stage determined via liver biopsy at end of trial compared to baseline, Proportion of subjects","0.4 mg OD s.c., week 72",4.9%
same,Worsening of liver fibrosis stage compared to placebo (in words),"all semaglutide dosages tested, week 72",lower proportion of subjects
same,Resolution of NASH and no worsening in liver fibrosis compared to placebo (in words),[16],achieved by significantly more subjects compared to placebo
same,Resolution of NASH compared to placebo (in words),[16],achieved by significantly more subjects compared to placebo
